One compound from patent publication US9492471B2, “Methods of treating a disease or disorder associated with Bruton'S Tyrosine Kinase” (Celgene Avilomics Research, Inc., priority 2013, dated 2016) can be followed below.

Holding throughout (assay): HotSpot kinase profiling
Format in all cases: biochemical

For one test, the target named is T1, PLK4/SAK (Homo sapiens, UniProt O00444).
T1 construct: purchased Reaction Biology Corp
T1 sequence (O00444 1-970): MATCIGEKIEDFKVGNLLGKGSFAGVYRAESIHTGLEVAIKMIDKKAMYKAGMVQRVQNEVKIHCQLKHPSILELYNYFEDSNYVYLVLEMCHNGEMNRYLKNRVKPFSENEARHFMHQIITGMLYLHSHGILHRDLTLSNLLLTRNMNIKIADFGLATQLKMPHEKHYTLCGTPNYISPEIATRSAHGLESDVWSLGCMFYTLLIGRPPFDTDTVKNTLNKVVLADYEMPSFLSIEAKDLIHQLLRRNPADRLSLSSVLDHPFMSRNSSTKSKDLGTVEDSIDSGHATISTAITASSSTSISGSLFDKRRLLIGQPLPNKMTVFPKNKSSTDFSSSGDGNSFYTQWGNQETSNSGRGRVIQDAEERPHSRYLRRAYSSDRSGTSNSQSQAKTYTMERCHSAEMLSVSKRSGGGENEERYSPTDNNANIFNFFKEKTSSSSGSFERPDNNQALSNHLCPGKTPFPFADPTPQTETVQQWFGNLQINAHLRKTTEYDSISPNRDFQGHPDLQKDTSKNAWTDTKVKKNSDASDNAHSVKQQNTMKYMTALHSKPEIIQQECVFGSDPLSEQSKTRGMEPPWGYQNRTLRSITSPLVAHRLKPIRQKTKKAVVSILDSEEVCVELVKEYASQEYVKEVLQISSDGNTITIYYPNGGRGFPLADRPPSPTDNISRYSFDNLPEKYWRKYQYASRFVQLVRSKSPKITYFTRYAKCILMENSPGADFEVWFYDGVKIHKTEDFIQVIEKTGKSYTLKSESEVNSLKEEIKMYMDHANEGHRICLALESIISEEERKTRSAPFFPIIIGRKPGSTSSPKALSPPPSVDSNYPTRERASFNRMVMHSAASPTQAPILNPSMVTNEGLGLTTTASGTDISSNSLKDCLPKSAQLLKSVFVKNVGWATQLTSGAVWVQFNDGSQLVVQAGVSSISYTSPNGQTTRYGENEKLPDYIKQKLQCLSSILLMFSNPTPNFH
The method, boiled down: (§1)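 Percent inhibition, averaged when run more than once and referenced to a DMSO negative control, came from a radioactive filter-binding readout on P81 paper. Reactions of kinase with freshly made substrate and cofactors ran for 2 h at room temperature.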

Another test addresses T2, CK1g1 (Homo sapiens, UniProt Q9HCP0).
T2 construct: purchased Reaction Biology Corp
The method, boiled down: as §1

In another test the target is T3, FAK/PTK2 (Homo sapiens, UniProt Q05397).
T3 construct: purchased Reaction Biology Corp
In outline: as §1

The target in a further test is T4, MRCKa/CDC42BPA (Homo sapiens, UniProt Q5VT25).
T4 construct: purchased Reaction Biology Corp
The method, boiled down: as §1

[1] abbreviates: read-out: % Enzyme Activity (relative to DMSO controls) Run 1.
Setting [2] is: read-out: % Enzyme Activity (relative to DMSO controls) Run 2.

Each structure is given as a SMILES string. Read-outs that look alike come from different tables or passages of the source.

T3 sequence (Q05397 whole entry): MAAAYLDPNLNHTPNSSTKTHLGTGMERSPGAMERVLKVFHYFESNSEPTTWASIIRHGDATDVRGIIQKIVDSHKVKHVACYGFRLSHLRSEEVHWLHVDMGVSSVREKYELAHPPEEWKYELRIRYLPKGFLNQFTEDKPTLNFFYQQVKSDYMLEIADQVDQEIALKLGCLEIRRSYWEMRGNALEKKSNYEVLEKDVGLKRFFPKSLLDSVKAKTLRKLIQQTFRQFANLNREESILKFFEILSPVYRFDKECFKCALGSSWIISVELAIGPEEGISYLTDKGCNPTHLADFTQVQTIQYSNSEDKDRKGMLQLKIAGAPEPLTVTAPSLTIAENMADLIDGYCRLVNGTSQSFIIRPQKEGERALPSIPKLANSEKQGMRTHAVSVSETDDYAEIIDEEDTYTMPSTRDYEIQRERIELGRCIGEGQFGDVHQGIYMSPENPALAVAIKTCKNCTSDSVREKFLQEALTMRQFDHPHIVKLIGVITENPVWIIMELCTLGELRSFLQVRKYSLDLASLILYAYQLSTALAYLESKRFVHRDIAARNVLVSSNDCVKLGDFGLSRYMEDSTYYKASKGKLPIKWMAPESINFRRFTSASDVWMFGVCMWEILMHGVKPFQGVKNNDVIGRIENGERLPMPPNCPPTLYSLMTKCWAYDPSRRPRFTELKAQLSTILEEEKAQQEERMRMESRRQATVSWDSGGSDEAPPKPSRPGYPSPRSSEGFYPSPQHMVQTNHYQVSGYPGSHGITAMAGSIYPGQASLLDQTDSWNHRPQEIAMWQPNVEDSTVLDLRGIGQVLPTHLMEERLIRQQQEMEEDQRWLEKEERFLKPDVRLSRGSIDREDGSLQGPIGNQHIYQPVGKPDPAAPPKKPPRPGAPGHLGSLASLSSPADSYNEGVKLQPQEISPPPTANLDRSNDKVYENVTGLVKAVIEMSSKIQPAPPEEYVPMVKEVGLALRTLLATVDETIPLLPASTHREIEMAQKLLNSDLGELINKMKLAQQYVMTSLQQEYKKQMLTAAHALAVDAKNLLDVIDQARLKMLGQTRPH
T4 sequence (Q5VT25 whole entry): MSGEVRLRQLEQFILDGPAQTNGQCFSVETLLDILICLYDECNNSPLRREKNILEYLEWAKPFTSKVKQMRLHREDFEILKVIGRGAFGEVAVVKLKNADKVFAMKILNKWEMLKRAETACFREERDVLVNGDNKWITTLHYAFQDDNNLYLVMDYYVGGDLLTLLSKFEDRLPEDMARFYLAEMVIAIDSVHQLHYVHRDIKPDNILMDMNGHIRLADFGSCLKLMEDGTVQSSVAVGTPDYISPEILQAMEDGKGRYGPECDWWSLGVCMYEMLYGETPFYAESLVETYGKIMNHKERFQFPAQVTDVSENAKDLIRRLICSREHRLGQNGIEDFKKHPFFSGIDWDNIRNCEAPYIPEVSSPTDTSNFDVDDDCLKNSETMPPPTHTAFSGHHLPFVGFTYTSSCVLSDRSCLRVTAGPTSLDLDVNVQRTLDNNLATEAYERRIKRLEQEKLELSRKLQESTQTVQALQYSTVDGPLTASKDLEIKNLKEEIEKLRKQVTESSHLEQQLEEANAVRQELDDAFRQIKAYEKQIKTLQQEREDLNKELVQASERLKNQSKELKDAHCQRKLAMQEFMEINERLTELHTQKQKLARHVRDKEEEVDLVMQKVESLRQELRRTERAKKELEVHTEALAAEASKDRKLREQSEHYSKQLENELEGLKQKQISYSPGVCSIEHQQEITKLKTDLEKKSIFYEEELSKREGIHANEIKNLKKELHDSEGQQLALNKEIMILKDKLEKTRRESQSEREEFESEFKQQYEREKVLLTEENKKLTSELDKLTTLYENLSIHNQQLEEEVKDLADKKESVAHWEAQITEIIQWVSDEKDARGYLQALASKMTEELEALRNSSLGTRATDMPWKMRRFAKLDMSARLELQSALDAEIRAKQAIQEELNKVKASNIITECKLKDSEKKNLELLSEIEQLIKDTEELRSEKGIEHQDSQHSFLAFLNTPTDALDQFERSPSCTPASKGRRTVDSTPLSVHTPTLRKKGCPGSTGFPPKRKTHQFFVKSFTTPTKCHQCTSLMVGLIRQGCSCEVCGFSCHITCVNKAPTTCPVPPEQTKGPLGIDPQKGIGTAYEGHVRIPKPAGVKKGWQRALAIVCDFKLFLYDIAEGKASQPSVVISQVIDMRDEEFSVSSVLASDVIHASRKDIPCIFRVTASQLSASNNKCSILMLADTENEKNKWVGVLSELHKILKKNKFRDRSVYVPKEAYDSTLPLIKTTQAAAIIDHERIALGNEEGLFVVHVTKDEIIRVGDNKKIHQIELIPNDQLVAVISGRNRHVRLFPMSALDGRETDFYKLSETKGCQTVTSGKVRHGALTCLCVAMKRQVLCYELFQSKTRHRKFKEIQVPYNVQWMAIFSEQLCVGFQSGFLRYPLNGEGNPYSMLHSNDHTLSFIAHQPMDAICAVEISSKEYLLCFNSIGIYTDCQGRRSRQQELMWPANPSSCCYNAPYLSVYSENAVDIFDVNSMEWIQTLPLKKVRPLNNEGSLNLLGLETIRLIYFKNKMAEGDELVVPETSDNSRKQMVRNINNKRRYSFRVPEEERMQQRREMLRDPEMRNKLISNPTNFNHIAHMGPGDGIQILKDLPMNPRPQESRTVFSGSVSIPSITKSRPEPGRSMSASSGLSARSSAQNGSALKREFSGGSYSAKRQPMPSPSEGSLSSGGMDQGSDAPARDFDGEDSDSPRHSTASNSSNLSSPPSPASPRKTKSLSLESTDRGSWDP
T2 sequence (Q9HCP0 whole entry): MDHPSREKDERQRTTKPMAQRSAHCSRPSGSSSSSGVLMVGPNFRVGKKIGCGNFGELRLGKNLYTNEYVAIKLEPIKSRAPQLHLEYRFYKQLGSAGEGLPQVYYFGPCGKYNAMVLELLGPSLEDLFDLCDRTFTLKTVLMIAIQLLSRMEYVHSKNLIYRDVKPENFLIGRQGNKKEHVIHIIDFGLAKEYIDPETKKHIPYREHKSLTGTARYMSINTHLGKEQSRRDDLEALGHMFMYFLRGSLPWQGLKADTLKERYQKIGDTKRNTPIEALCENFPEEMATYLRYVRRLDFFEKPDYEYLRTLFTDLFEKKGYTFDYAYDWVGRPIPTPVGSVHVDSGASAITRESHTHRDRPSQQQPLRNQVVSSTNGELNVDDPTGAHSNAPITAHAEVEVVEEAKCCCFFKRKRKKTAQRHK

As for `C=CC(=O)Nc1cccc(Nc2nc(Nc3ccc(OCCOC)c(F)c3)ncc2F)c1` [Compound 2], the inhibition – broadly, the drop in the measured response relative to a control, in per cent – at 3 µM is 45% at PLK4/SAK, 10.5% on CK1g1, 37.1% against FAK/PTK2 and -14.3% on MRCKa/CDC42BPA. For the same compound, the remaining activity at 3 µM was found to be 54.8% at PLK4/SAK (setting [1]); 55.2% on PLK4/SAK (setting [2]); 88.8% at CK1g1 (setting [1]); 90.3% on CK1g1 (setting [2]); 62.8% at FAK/PTK2 (setting [1]); 62.9% at FAK/PTK2 (setting [2]). The remaining activity at 3 µM on MRCKa/CDC42BPA (setting [1]) was 114%; on MRCKa/CDC42BPA (setting [2]) it was 115%.
